# Laboratory results as given in patent publication US12180228B2 (priority 2019, dated 2024).
# How the values were obtained:
# [1] = tested on: HeLa (cervical carcinoma); conditions: for IC50: read-out: Cytotoxicity IC50, HeLa, 72 h of compound treatment, Cell Titer-Glo (ATP levels), error is standard deviation of the mean, n ≥ 2
# Experimental: (§1) Cells were grown in media supplemented with fetal bovine serum (FBS) and antibiotics (100 μg/mL penicillin and 100 U/mL streptomycin).
# (§2) Cells were plated at 250 cells/well into duplicate assay plates in 50 μL media into 384-well white, opaque, tissue-culture treated plates and allowed to adhere overnight at 37° C./5% CO2. Compounds were solubilized in DMSO as 1000× stocks and […] was pin-transferred to cells (V&P pin tool mounted on Tecan Freedom Evo MCA96). Compounds were tested in 10-pt, 2-fold dilution with concentrations tested between 1 nM-20 μM for most compounds, except where indicated. DMSO (32 wells of 384-wells) was used as vehicle control. After 72 hours of incubation at 37° C./5% CO2, 10 μL Cell Titer-Glo (Promega) was added to each well and plates were incubated at room temperature for 10 minutes before the luminescence was read on a Tecan M1000 plate reader. Cell Titer-Glo measures ATP levels of cells as a surrogate for cell viability. All compound-treated wells was normalized to the DMSO control averages and expressed as a % of DMSO viability. IC50 values were determined from the dose curves using Spotfire (Perkin Elmer).
# [2] = tested on: DU-145 (prostate carcinoma); conditions: for IC50: read-out: Cytotoxicity IC50, DU-145, 72 h of compound treatment, Cell Titer-Glo (ATP levels), error is standard deviation of the mean, n ≥ 2
# Experimental: as §1, §2
# [3] = tested on: A549 (alveolar adenocarcinoma); conditions: for IC50: read-out: Cytotoxicity IC50, A549, 72 h of compound treatment, Cell Titer-Glo (ATP levels), error is standard deviation of the mean, n ≥ 2
# Experimental: as §1, §2
# [4] = tested on: Toledo cell lines (diffuse large cell lymphoma; non-Hodgkin's B cell lymphoma); test: cells; format: cell-based; conditions: Homo sapiens, 72 hours, CellTiter-Glo
# Experimental: (§3) Cells were grown in RPMI-1640+10% FBS+Pen/Strep and all are suspension cell lines. Each were plated at 250 cells per well in 50 μL of media in a 384 well plate and 50 nL of compounds was added via pin-tool (same as our usual procedure). Compounds were tested at 20 μM starting assay concentration in 20-pt, 2-fold dose in duplicate on the same assay plate. Cells were incubated with compound for 72 hours and viability was read out with CellTiter-Glo.
# [5] = tested on: Jurkat cell lines (acute T cell leukemia); test: cells; format: cell-based; conditions: Homo sapiens, 72 hours, CellTiter-Glo
# Experimental: as §3
# [6] = tested on: K-562 cell lines (chronic myelogenous leukemia (CML)); test: cells; format: cell-based; conditions: Homo sapiens, K562; 72 hours, CellTiter-Glo
# Experimental: as §3
# [7] = tested on: MCF7 (breast adenocarcinoma); conditions: read-out: Cytotoxicity IC50, MCF7; 72 h of compound treatment, Cell Titer-Glo (ATP levels); error is standard deviation of the mean, n ≥ 2
# Experimental: as §1, §2
# [8] = tested on: HCT116 (colorectal carcinoma); conditions: read-out: Cytotoxicity IC50, HCT116; 72 h of compound treatment, Cell Titer-Glo (ATP levels); error is standard deviation of the mean, n ≥ 2
# Experimental: as §1, §2
# [9] = tested on: five human cancer cell lines (HeLa, A549, MCF7, HCT116, DU-145); conditions: for cytotoxic activity relative to parent ETP (in words): same five cell lines
# Experimental: Cells were grown in media supplemented with fetal bovine serum (FBS) and antibiotics (100 μg/mL penicillin and 100 U/mL streptomycin). Specifically, experiments were performed using the following cell lines and media compositions: HeLa (cervical adenocarcimona) and A549 (lung carcinoma) were grown in RPMI-1640+10% FBS; HCT-116 (colorectal carcinoma) was grown in DMEM+10% FBS; DU-145 (prostate carcinoma) and MCF7 (breast adenocarcinoma) were grown in EMEM+10% FBS. Cells were incubated at 37° C. in a 5% CO2, 95% humidity atmosphere.
# as §2
# To evaluate the model and functionalized ETP probes as anticancer agents, fifteen derivatives were tested in culture against a panel of five human cancer cell lines (Table 1).
# [10] = D2O and CD3CN, addition of glutathione; minutes with base or days without
# Experimental: The first study involved thiol-disulfide exchange of ETPs in organic solvents using a surrogate thiol, and then transitioned to more biologically informative aqueous conditions involving glutathione (Scheme 9).
# To investigate this, aliquots of the reaction were diluted starting with epidisulfide (+)-42 (“from ETP”) in CDCl3 to analyze the composition versus an internal standard over a period of 100 h.
# [11] = Chemical stability of epidisulfides, in situ 1H NMR monitoring; format: physicochemical; conditions: triethylamine, 16 hours in deuteroacetonitrile
# Experimental: In the absence of base, 98% of epidisulfide (+)-8 remained after 20 hours in deuterochloroform.
# Monitoring in situ by ^1H NMR spectroscopy, 99% remaining starting material in the presence of triethylamine after 16 hours in deuteroacetonitrile was observed.
SMILES,IC50 [7] [nM],IC50 [1] [nM],IC50 [2] [nM],IC50 [8] [nM],IC50 [3] [nM],cytotoxic activity relative to parent ETP (in words) [9],further results
"CN1C(=O)[C@@]23C[C@]4(c5ccc(OCCCN=[N+]=[N-])cc5)c5ccccc5N(S(=O)(=O)c5ccccc5)[C@@H]4N2C(=O)[C@]1(C)SS3 [(+)-9d, Epidithiodiketopiperazine Azide]",,,,,,,"fold decrease in activity compared to model ETP (+)-42, HeLa [1]: 4.3 fold; fold decrease in activity compared to model ETP (+)-42, DU-145 [2]: 8.6 fold; fold decrease in activity compared to model ETP (+)-42, A549 [3]: 2.7 fold; IC50 [4]: 1810 nM; IC50 [5]: 419 nM; IC50 [6]: 1280 nM"
"COc1ccc([C@]23C[C@]4(SSC[C@H](NC(=O)CC[C@H](N)C(=O)O)C(=O)NCC(=O)O)C(=O)N(C)[C@@](C)(SSC[C@H](NC(=O)CC[C@H](N)C(=O)O)C(=O)NCC(=O)O)C(=O)N4[C@H]2N(S(=O)(=O)c2ccccc2)c2ccccc23)cc1 [Compound 46, Bis(L-glutathione)disulfide]",500 ± 152,508 ± 75,580 ± 216,1100 ± 540,910 ± 324,significantly less active,reversion of bisdisulfide to ETP (+)-42 (in words) [10]: quantitative reversion
COc1ccc([C@]23C[C@]4(SSCc5ccc(F)cc5)C(=O)N(C)[C@@](C)(SSCc5ccc(F)cc5)C(=O)N4[C@H]2N(S(=O)(=O)c2ccccc2)c2ccccc23)cc1 [(+)-45b],,,,,,approximately the same activities,
"COc1ccc([C@]23C[C@@]45SS[C@@](C)(C(=O)N4[C@H]2N(S(=O)(=O)c2ccccc2)c2ccccc23)N(C)C5=O)cc1 [(+)-42, Epidithiodiketopiperazine]",81 ± 64,32 ± 37,36 ± 43,374 ± 83,92 ± 87,,"remaining starting material [11]: 99%; IC50 ([9]; read-out: activity (IC50 range) against the five cell lines, range over HeLa, A549, MCF7, HCT116, DU-145): 32 to 374 nM"
COc1ccc([C@]23C[C@]4(SSCc5ccc(F)cc5)C(=O)N(C)[C@@H](SSCc5ccc(F)cc5)C(=O)N4[C@H]2N(S(=O)(=O)c2ccccc2)c2ccccc23)cc1 [(−)-45a],,,,,,approximately the same activities,
